Measured values from ChEMBL document CHEMBL1158398, “New cyclopentane derivatives as inhibitors of steroid metabolizing enzymes AKR1C1 and AKR1C3” (Eur J Med Chem, 2009).
pIC50, pKi: −log10 of the molar value. Activity calls are given as the source filed them. The rule behind the calls is not given here.

Tests used:
[1] = biological target: T1, Aldo-keto reductase family 1 member C1 (Homo sapiens) (UniProt Q04828); assay: Inhibition of human recombinant GST-tagged AKR1C1 expressed in Escherichia coli BL21 at 100 uM
T1 sequence (whole entry): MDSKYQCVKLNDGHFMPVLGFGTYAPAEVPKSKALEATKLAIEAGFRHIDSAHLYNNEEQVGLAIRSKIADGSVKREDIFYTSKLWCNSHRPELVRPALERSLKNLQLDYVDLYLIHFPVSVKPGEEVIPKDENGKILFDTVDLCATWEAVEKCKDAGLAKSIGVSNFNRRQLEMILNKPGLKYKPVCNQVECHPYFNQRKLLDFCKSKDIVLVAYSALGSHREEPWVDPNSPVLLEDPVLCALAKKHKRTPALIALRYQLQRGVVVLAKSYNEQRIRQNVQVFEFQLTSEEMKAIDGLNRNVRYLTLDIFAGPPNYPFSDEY

[2] = biological target: T2, Aldo-keto reductase family 1 member C3 (Homo sapiens) (UniProt P42330); assay: Inhibition of human recombinant GST-tagged AKR1C3 expressed in Escherichia coli BL21 at 100 uM
T2 sequence (whole entry): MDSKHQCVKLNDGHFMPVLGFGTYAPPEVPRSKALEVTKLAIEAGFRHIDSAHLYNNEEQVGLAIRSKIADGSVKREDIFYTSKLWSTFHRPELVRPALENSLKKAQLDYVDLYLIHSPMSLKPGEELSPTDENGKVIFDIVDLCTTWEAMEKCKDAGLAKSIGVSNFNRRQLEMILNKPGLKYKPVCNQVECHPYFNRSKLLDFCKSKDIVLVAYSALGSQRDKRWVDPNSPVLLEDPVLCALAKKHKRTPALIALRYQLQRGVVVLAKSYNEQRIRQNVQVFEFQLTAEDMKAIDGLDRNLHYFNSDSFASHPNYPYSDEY

[3] = biological target: T3, Aldo-keto reductase family 1 member C3 (Homo sapiens, UniProt P42330); assay: Inhibition of human recombinant GST-tagged AKR1C3 expressed in Escherichia coli BL21
T3 sequence (P42330 whole entry): T2 sequence (whole entry)

[4] = biological target: T1, Aldo-keto reductase family 1 member C1 (Homo sapiens); assay: Inhibition of human recombinant GST-tagged AKR1C1 expressed in Escherichia coli BL21 at 50 uM
[5] = biological target: T2, Aldo-keto reductase family 1 member C3 (Homo sapiens); assay: Inhibition of human recombinant GST-tagged AKR1C3 expressed in Escherichia coli BL21 at 50 uM
[6] = Solubility of the compound; format: physicochemical
[7] = biological target: T4, Aldo-keto reductase family 1 member C1 (Homo sapiens, UniProt Q04828); assay: Inhibition of human recombinant GST-tagged AKR1C1 expressed in Escherichia coli BL21
T4 sequence (Q04828 whole entry): T1 sequence (whole entry)

[8] = biological target: T1, Aldo-keto reductase family 1 member C1 (Homo sapiens); assay: Competitive inhibition of human recombinant GST-tagged AKR1C1 expressed in Escherichia coli BL21 at 17.4 uM by Lineweaver-Burke plot analysis
[9] = biological target: T1, Aldo-keto reductase family 1 member C1 (Homo sapiens); assay: Competitive inhibition of human recombinant GST-tagged AKR1C1 expressed in Escherichia coli BL21 at 36.2 uM by Lineweaver-Burke plot analysis
[10] = biological target: T1, Aldo-keto reductase family 1 member C1 (Homo sapiens); assay: Competitive inhibition of human recombinant GST-tagged AKR1C1 expressed in Escherichia coli BL21 at 72.5 uM by Lineweaver-Burke plot analysis

| SMILES | inhibition [1] | inhibition [2] | other results |
| --- | --- | --- | --- |
| Cc1ccc(S(=O)(=O)N2C3CCCC32)cc1 (stereo unspecified) | 2.1% | 2.7% |  |
| OC1C(Cc2ccccc2)CCC1Cc1ccccc1 (stereo unspecified) |  |  | inhibition [4]: 11.5%; inhibition [5]: 46.6%; solubility [6]: Insoluble |
| Cc1ccc(S(=O)(=O)N[C@@H]2CCC[C@H]2Br)cc1 (relative stereo) | 20.3% | 9.2% |  |
| Cc1ccc(S(=O)(=O)N[C@@H]2CCC[C@H]2C(=O)O)cc1 (relative stereo) | 26.1% | inactive |  |
| O[C@@H]1CCC[C@H]1Nc1ccccc1 (relative stereo) | 14.7% | inactive |  |
| OC1CCCC1(Cc1ccccc1)Cc1ccccc1 (stereo unspecified) |  |  | inhibition [4]: 15.9%; inhibition [5]: 67.3%; solubility [6]: Insoluble |
| Cc1ccc(S(=O)(=O)N[C@@H]2CCC[C@H]2C#N)cc1 (relative stereo) | 15.9% | inactive |  |
| O[C@H]1CCC[C@H]1Cc1ccccc1 (relative stereo) | 9.7% | inactive |  |
| Cc1ccc(S(=O)(=O)N[C@@H]2CCC[C@H]2C(N)=O)cc1 (relative stereo) | 12.9% | inactive |  |
| O=C(O)C1(c2ccccc2)CCCC1 | 53.5% | 5.8% | pIC50 [7]: 4.14; pKi [7]: 4.45 |

The next lines start with results.

| inhibition [1] | inhibition [2] | SMILES | other results |
| --- | --- | --- | --- |
| 40.1% | 87.4% | COC1CCC/C1=C\c1ccc(Cl)cc1 (stereo unspecified) | pIC50 [3]: 4.75; pKi [3]: 4.79 |
| 13.8% | inactive | O[C@@H]1CCC[C@H]1Cc1ccccc1 (relative stereo) |  |
| 77.8% | 88.8% | O=C1CCC/C1=C\c1ccc(Cl)cc1 | pIC50 [7]: 4.46; pKi [7]: 4.76; pIC50 [3]: 4.44; pKi [3]: 4.48; Activity [8]: Active; Activity [9]: Active; Activity [10]: Active |
| 55.4% | 52.7% | O=C(O)C1CCC(c2ccccc2)C1 (stereo unspecified) | pIC50 [7]: 4.01; pKi [7]: 4.31; pIC50 [3]: 4.12; pKi [3]: 4.16 |
| 52.9% | 83.9% | CCOC1CCC/C1=C\c1ccc(Cl)cc1 (stereo unspecified) | pIC50 [7]: 4.21; pKi [7]: 4.52; pIC50 [3]: 4.65; pKi [3]: 4.69 |
